The test relates to Dirofilaria immitis. The test is described as follows: Influence evaluation test on the growth of Dirofilaria immitis. The note with it: 168 h, read-out: development inhibition rate from the L3 stage larva to the L4-stage larva.

A word on the inhibition: it is the change of the read-out against control, counted positive when it falls. For `CN1CC(C)(c2ccc(C(F)(F)F)cc2)C(O)=C(C(=S)Nc2ccc(F)cc2)C1=O` (stereo not shown) [compound No. 3-14, N-(4-fluorophenyl)-4-hydroxy-1,5-dimethyl-2-oxo-5-(4-(trifluoromethyl)phenyl)-1,2,5,6-tetrahydropyridine-3-carbothioamide], the inhibition at 10 µM is at least 50%.
